Where two headings read alike, the source gives them in different places.

Here are results for 4 compounds from US4322528A (priority 1979, dated 1982).

Common to all, as to assay: whole plant or invertebrate
Experiment [1] has as its system Housefly Larvae. Conditions: Musca domestica, soil, 168 h.
The test system of experiment [2] is Tobacco Budworm Larvae. Conditions: Heliothis virescens, foliar, read-out: Tobacco Budworm Larvae, Leaf Feed, % control @ ppm.
For experiment [3], the system named is Hock Colorado Potato Beetle 2nd Stg. Larva. Conditions: Leptinotarsa decemlineata, foliar, read-out: Hock Colorado Potato Beetle 2nd Stg. Larva, Leaf Feed, % control @ ppm.
The test system of experiment [4] is Housefly Adult. Particulars: Musca domestica, read-out: Housefly Adult, Contact Spray, % control @ ppm.
Experiment [5] deals with Parathion-resistant Two-spotted Spider Mite Egg. Particulars: Tetranychus urticae, foliar, read-out: Parathion-resistant Two-spotted Spider Mite, Egg, % control @ ppm.
The test system of experiment [6] is Cabbage Looper Larvae. Conditions: Trichoplusia ni, foliar, read-out: Cabbage Looper Larvae, Leaf Feed, % control @ ppm.
Setting [7] is: read-out: 7-Day Exposure Housefly Larvae Treatment, % control, C @ ppm (second sub-column).
Where [8] appears, read: read-out: 7-Day Exposure Housefly Larvae Treatment, % control @ ppm.

As to `CCOP(=S)(OCC)Oc1cc(C)nc(C(C)C)n1` [Diazinon, reference compound], the mortality at 40 ppm in experiment [1] (setting [7]) was 37%.
With `ClC1=C(Cl)C2(Cl)C(c3ccccc3)CN1C2(Cl)Cl` (centres unmarked) [Ex. 4, 1-aza-5-phenyl-2,3,4,7,7-pentachlorobicyclo[2.2.1]-2-heptene], the mortality at 500 ppm in experiment [2] is 66%; in experiment [3], 50%. In addition, the mortality at 40 ppm in experiment [1] (setting [8]) was 43%; in experiment [5], 77%. Moreover, the mortality at 100 ppm in experiment [4] worked out at 10%.
`ClC1=C(Cl)C2(Cl)C3c4ccccc4CC3N1C2(Cl)Cl` (centres unmarked) [Ex. 5, 1-aza-4,5-benzo-7,8,9,10,10-pentachlorotricyclo[5.2.1.0^2.6]-8-decene]: the mortality at 500 ppm in experiment [2] was found to be 6%. Moreover, the mortality at 40 ppm in experiment [1] (setting [8]) worked out at 47%; in experiment [5], 13%. The mortality at 100 ppm in experiment [4] came to 42%.
Turning to `ClC1=NC(Cl)(Cl)C2(Cl)C3CC(C(Cl)C3Cl)C12Cl` (centres unmarked) [Ex. 3, 4-aza-2,3,5,5,6,8,9-heptachlorotricyclo[5.2.1.0^2.6]dec-3-ene], the mortality at 40 ppm worked out at 67% in experiment [1] (setting [7]) and 31% in experiment [5]. In addition, the mortality at 500 ppm in experiment [6] came out at 26%. The mortality at 100 ppm in experiment [4] came to 83%.
